Values belong to the molecule of their own block, whether it stands above or below them.
How the values were obtained:
[1] = tested on: HIV-1/LAI infected MT4 cells; type: cell-based; details: in combination with the compound of formula (4); three molar ratios; mean of three experiments
Description: In general, combinations of two compounds can act synergistically, in an additive way or antagonistically. […] For the current invention, this was assessed in an experimental setting where the potency of different ratios of the two HIV-protease inhibitors is measured. Results were plotted in an isobologram graph according to the method described by Chou and Talalay (Adv. Enzyme Regul. 22: 27-55, 1984).
The results were analyzed according to the isobologram method described by Chou and Talalay (1984).
The results are presented as the mean of three separate experiments. The combination index (CI) for each combination was determined.

[2] = Safety and tolerability (adverse events, maculopapular rash) in clinical testing
[3] = Influence of ritonavir on the pharmacokinetics of a single dose of the compound of formula (4); details: human, in vivo; for AUC: mean ± SD
[4] = Panel E (1200 mg/200 mg RTV o.d.)

Structure (SMILES): CC(C)CN(C[C@@H](O)[C@H](Cc1ccccc1)NC(=O)O[C@H]1CCOC1)S(=O)(=O)c1ccc(N)cc1 [amprenavir]
combination index (CI) [1]: 0.65-0.77

Tmax [3]: 60 min | Tmax ([3]; 800 mg): 48 min | AUC ([3]; 800 mg, Session I: single 800 mg dose alone): 10700 ± 3130 ng·h/mL | AUC ([3]; 800 mg, Session II: single 800 mg dose with RTV): 98700 ± 38500 ng·h/mL
Structure (SMILES): CC(C)CN(C[C@@H](O)[C@H](Cc1ccccc1)NC(=O)O[C@H]1CO[C@H]2OCC[C@H]21)S(=O)(=O)c1ccc(N)cc1 [compound of formula (4), carbamic acid [(1S,2R)-3-[[(4-aminophenyl)sulfonyl](2-methylpropyl)amino]-2-hydroxy-1-(phenylmethyl)propyl]-(3R,3aS,6aR)hexahydrofuro[2,3-b]furan-3-yl ester]
subjects who developed maculopapular rash ([2]; 1200 mg t.i.d. alone): 4 out of 6 | itching of the body and/or redness of the skin [2, 4]: two other volunteers | maculopapular rash [2, 4]: one volunteer with a clear maculopapular rash | maculopapular rash ([2]; volunteers in panels A to D (with ritonavir)): No maculopapular rash was observed

Structure (SMILES): CC(C)(C)NC(=O)[C@@H]1CN(Cc2cccnc2)CCN1C[C@@H](O)C[C@@H](Cc1ccccc1)C(=O)N[C@H]1c2ccccc2C[C@H]1O [indinavir]
combination index (CI) [1]: 0.87-0.92

Structure (SMILES): Cc1cccc(C)c1OCC(=O)N[C@@H](Cc1ccccc1)[C@@H](O)C[C@H](Cc1ccccc1)NC(=O)[C@H](C(C)C)N1CCCNC1=O [lopinavir]
combination index (CI) [1]: 0.85-0.95

Structure (SMILES): Cc1c(O)cccc1C(=O)N[C@@H](CSc1ccccc1)[C@H](O)CN1C[C@H]2CCCC[C@H]2C[C@H]1C(=O)NC(C)(C)C [nelfinavir]
combination index (CI) [1]: 0.61-0.80

Structure (SMILES): CC(C)c1nc(CN(C)C(=O)N[C@H](C(=O)N[C@@H](Cc2ccccc2)C[C@H](O)[C@H](Cc2ccccc2)NC(=O)OCc2cncs2)C(C)C)cs1 [ritonavir]
combination index (CI) [1]: 0.66-0.81

Structure (SMILES): CC(C)(C)NC(=O)[C@@H]1C[C@@H]2CCCC[C@@H]2CN1C[C@@H](O)[C@H](Cc1ccccc1)NC(=O)[C@H](CC(N)=O)NC(=O)c1ccc2ccccc2n1 [saquinavir]
combination index (CI) [1]: 0.94-1.0
